Values quoted from earlier work, collected in US20180042936A1, “MAINTENANCE THERAPY USING TIANEPTINE” (GENOMIND, Inc., priority 2016, published 2018).
Like-named read-outs stand apart in the source and are kept apart here.

Assays:
[1] = some individuals with treatment-resistant major depressive disorder and bipolar disorder
[2] = system: brain derived neurotrophic factor (BDNF); conditions: responders compared to non-responders

CNC1(c2ccccc2Cl)CCCCC1=O (racemic) [Ketamine, (RS)-2-(2-Chlorophenyl)-2-(methylamino)cyclohexanone]
time to anti-depression efficacy [1]: ≤ 1 h
plasma BDNF levels ([2]; 240 min post-infusion (Haile et al. 2014)): significantly increased
plasma BDNF levels ([2]; post-infusion of ketamine (Example 1)): increases plasma BDNF levels
